Reference: PMC9492542, “Brain-restricted mTOR inhibition with binary pharmacology” (Nature, 2022)
“And” between values parts separate entries of the source, which are not always exact repeats. Identical values can stand only once. Like-named read-outs stand apart in the source and are kept apart here.

Columns and labels:
mTOR = biological target: T1, mTOR (Homo sapiens, UniProt P42345); assay: In vitro mTOR kinase inhibition assay (SelectScreen Z'-LYTE), with or without 10 µM FKBP12; type: biochemical; conditions: for residual kinase activity (mTOR): listed as RL-1
T1 construct: We performed in vitro kinase assays with purified mTOR protein; purchased SelectScreen Services (Thermo Fisher Scientific)
T1 sequence (P42345 1360-2549 limits assumed): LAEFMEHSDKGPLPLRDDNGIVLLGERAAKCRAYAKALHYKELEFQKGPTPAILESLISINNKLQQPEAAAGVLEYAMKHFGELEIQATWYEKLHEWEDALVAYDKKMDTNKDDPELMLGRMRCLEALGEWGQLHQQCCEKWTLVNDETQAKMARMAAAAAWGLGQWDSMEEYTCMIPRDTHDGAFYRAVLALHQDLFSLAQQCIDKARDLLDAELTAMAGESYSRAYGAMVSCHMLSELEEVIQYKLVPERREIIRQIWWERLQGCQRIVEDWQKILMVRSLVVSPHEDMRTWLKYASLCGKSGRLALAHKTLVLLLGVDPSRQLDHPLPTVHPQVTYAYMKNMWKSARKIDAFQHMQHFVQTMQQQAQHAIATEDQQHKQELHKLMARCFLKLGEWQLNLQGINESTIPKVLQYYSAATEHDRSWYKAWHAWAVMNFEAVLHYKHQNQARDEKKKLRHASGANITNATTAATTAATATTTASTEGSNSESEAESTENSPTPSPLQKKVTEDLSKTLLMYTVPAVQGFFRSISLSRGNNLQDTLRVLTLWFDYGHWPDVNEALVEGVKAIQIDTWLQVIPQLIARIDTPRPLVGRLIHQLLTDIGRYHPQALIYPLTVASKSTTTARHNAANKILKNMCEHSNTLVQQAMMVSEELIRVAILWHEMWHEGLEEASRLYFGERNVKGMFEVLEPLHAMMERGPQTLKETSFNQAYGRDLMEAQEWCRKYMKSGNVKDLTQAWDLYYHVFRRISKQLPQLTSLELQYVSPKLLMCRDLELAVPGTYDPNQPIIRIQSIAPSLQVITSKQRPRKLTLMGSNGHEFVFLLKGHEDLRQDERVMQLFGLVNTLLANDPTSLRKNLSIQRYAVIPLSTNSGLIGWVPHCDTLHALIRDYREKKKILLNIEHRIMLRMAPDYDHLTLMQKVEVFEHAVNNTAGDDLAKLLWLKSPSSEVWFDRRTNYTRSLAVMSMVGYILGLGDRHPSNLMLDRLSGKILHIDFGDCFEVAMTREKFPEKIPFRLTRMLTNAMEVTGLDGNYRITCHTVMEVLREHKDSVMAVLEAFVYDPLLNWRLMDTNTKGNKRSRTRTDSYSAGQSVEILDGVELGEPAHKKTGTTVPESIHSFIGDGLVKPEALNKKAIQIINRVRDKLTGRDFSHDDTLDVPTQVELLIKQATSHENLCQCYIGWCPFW
Method: In vitro kinase inhibition assays were performed by SelectScreen Services (Thermo Fisher Scientific) using either Z’-LYTE (mTOR, Src, Csk, EGFR, HER2 and HGK), Adapta (LRRK2) or LanthaScreen (DDR2) assay format (standardized protocols can be accessed on the SelectScreen website: https://www.thermofisher.com/us/en/home/products-and-services/services/custom-services/screening-and-profiling-services/selectscreen-profiling-service/selectscreen-kinase-profiling-service.html. When indicated, recombinant FKBP12 protein was added to the assay mixture to a final concentration of 10 µM.

K562 CRISPRi cells = assay: Cell viability assay (CellTiter-Glo, 72 h) in K562 CRISPRi cells with sgRNA knockdown of FKBP12
Method: Knockdown cells were generated by transducing K562 CRISPRi (sgRNA^–) cells with the sgRNA expression vectors at a multiplicity of infection of less than 1 (20–40% transduction rate) with 8 μg ml^–1 polybrene.
Cells were seeded into 96-well white flat bottom plates (1,000 cells per well) (Corning) and incubated overnight. […] Cell viability was assessed using a commercial CellTiter-Glo (CTG) luminescence-based assay (Promega). In brief, the 96-well plates were equilibrated to room temperature before the addition of diluted CTG reagent (100 μl) (1:4 CTG reagent:PBS). Plates were placed on an orbital shaker for 30 min before recording luminescence using a Spark 20M (TECAN) plate reader.

CO[C@H]1C[C@@H]2CC[C@@H](C)[C@@](O)(O2)C(=O)C(=O)N2CCCC[C@H]2C(=O)O[C@H]([C@H](C)C[C@@H]2CC[C@@H](OCCOCc3cn(CCOCCOCCOCCOCCOCCOCCOCCOCCC(=O)NCCCCn4nc(-c5ccc6oc(N)nc6c5)c5c(N)ncnc54)nn3)[C@H](OC)C2)CC(=O)[C@H](C)/C=C(\C)[C@@H](O)[C@@H](OC)C(=O)[C@H](C)C[C@H](C)/C=C/C=C/C=C/1C [RapaLink-1]
residual kinase activity (mTOR) (mTOR; 0.00495 nM drug, +FKBP): 99 | remaining activity at 4.95 pM (mTOR; 0.00495 nM drug, +FKBP, read-out: residual kinase activity (mTOR)): 95% | residual kinase activity (mTOR) (mTOR; 0.00495 nM drug, no FKBP): 100 | remaining activity at 4.95 pM (mTOR; 0.00495 nM drug, no FKBP, read-out: residual kinase activity (mTOR)): 96% | residual kinase activity (mTOR) (mTOR; 0.0152 nM drug, +FKBP): 103 | remaining activity at 15.2 pM (mTOR; 0.0152 nM drug, +FKBP, read-out: residual kinase activity (mTOR)): 98% | residual kinase activity (mTOR) (mTOR; 0.0152 nM drug, no FKBP): 101 | remaining activity at 15.2 pM (mTOR; 0.0152 nM drug, no FKBP, read-out: residual kinase activity (mTOR)): 100% | residual kinase activity (mTOR) (mTOR; 0.0457 nM drug, +FKBP): 103 | remaining activity at 45.7 pM (mTOR; 0.0457 nM drug, +FKBP, read-out: residual kinase activity (mTOR)): 102% | residual kinase activity (mTOR) (mTOR; 0.0457 nM drug, no FKBP): 99 | remaining activity at 45.7 pM (mTOR; 0.0457 nM drug, no FKBP, read-out: residual kinase activity (mTOR)): 101% | residual kinase activity (mTOR) (mTOR; 0.137 nM drug, +FKBP): 99 | remaining activity at 0.000137 µM (mTOR; 0.137 nM drug, +FKBP, read-out: residual kinase activity (mTOR)): 101% | residual kinase activity (mTOR) (mTOR; 0.137 nM drug, no FKBP): 96 | remaining activity at 0.000137 µM (mTOR; 0.137 nM drug, no FKBP, read-out: residual kinase activity (mTOR)): 97% | remaining activity at 0.000412 µM (mTOR; 0.412 nM drug, +FKBP, read-out: residual kinase activity (mTOR)): 97% | residual kinase activity (mTOR) (mTOR; 0.412 nM drug, no FKBP): 92 | remaining activity at 0.000412 µM (mTOR; 0.412 nM drug, no FKBP, read-out: residual kinase activity (mTOR)): 95% | residual kinase activity (mTOR) (mTOR; 1.23 nM drug, +FKBP): 86 | remaining activity at 0.00123 µM (mTOR; 1.23 nM drug, +FKBP, read-out: residual kinase activity (mTOR)): 89% | residual kinase activity (mTOR) (mTOR; 1.23 nM drug, no FKBP): 83 | remaining activity at 0.00123 µM (mTOR; 1.23 nM drug, no FKBP, read-out: residual kinase activity (mTOR)): 87% | residual kinase activity (mTOR) (mTOR; 11.1 nM drug, +FKBP): 17 | remaining activity at 0.0111 µM (mTOR; 11.1 nM drug, +FKBP, read-out: residual kinase activity (mTOR)): 14% | remaining activity at 0.0111 µM (mTOR; 11.1 nM drug, no FKBP, read-out: residual kinase activity (mTOR)): 15% | residual kinase activity (mTOR) (mTOR; 33.3 nM drug, +FKBP): 4 | remaining activity at 0.0333 µM (mTOR; 33.3 nM drug, +FKBP, read-out: residual kinase activity (mTOR)): 2% | residual kinase activity (mTOR) (mTOR; 33.3 nM drug, no FKBP): 2 | remaining activity at 0.0333 µM (mTOR; 33.3 nM drug, no FKBP, read-out: residual kinase activity (mTOR)): 3% | residual kinase activity (mTOR) (mTOR; 100 nM drug, +FKBP): 2 | remaining activity at 0.1 µM (mTOR; 100 nM drug, +FKBP, read-out: residual kinase activity (mTOR)): 3% | residual kinase activity (mTOR) (mTOR; […] drug, +FKBP): 57 | remaining activity at […] (mTOR; […] drug, +FKBP, read-out: residual kinase activity (mTOR)): 55% | residual kinase activity (mTOR) (mTOR; […] drug, no FKBP): 54 | remaining activity at […] (mTOR; […] drug, no FKBP, read-out: residual kinase activity (mTOR)): 56% | IC50 for mTOR kinase activity (mTOR; purified mTOR, whether FKBP12 was present): identical half-maximal inhibitory concentration (IC50) values as MLN0128 | cell growth (K562-dCas9-KRAB) (K562 CRISPRi cells; FKBP12 sgRNA-1, 0.0152416 nM): 105.506 and 102.628 and 96.1562 | cell growth (K562-dCas9-KRAB) (K562 CRISPRi cells; FKBP12 sgRNA-1, 0.0457247 nM): 105.668 and 102.078 and 85.8686 | cell growth (K562-dCas9-KRAB) (K562 CRISPRi cells; FKBP12 sgRNA-1, 1.23457 nM): 94.9833 and 94.8438 and 86.0533 | cell growth (K562-dCas9-KRAB) (K562 CRISPRi cells; FKBP12 sgRNA-1, 3.7037 nM): 89.3098 and 83.2596 and 72.1854 | cell growth (K562-dCas9-KRAB) (K562 CRISPRi cells; FKBP12 sgRNA-1, 11.1111 nM): 53.7829 and 50.941 and 46.1745 | cell growth (K562-dCas9-KRAB) (K562 CRISPRi cells; FKBP12 sgRNA-1, 33.3333 nM): 28.0164 and 26.1284 and 21.6828 | cell growth (K562-dCas9-KRAB) (K562 CRISPRi cells; FKBP12 sgRNA-2, 0.0152416 nM): 97.2191 and 100.632 and 101.126 | cell growth (K562-dCas9-KRAB) (K562 CRISPRi cells; FKBP12 sgRNA-2, 0.0457247 nM): 97.7063 and 99.4263 and 97.7491 | cell growth (K562-dCas9-KRAB) (K562 CRISPRi cells; FKBP12 sgRNA-2, 0.137174 nM): 95.7095 and 97.9482 and 99.6852 | cell growth (K562-dCas9-KRAB) (K562 CRISPRi cells; FKBP12 sgRNA-2, 1.23457 nM): 93.7321 and 94.186 and 93.5157 | cell growth (K562-dCas9-KRAB) (K562 CRISPRi cells; FKBP12 sgRNA-2, 3.7037 nM): 38.5541 and 41.9621 and 38.7138 | cell growth (K562-dCas9-KRAB) (K562 CRISPRi cells; FKBP12 sgRNA-2, 11.1111 nM): 19.9055 and 20.364 and 21.1046 | cell growth (K562-dCas9-KRAB) (K562 CRISPRi cells; FKBP12 sgRNA-2, 33.3333 nM): 15.1403 and 14.2518 and 15.8 | cell growth (K562-dCas9-KRAB) (K562 CRISPRi cells; GAL4-4 sgRNA, 0.0152416 nM): 101.863 and 99.8606 and 100.119 | cell growth (K562-dCas9-KRAB) (K562 CRISPRi cells; GAL4-4 sgRNA, 0.0457247 nM): 103.056 and 100.129 and 98.9614 | cell growth (K562-dCas9-KRAB) (K562 CRISPRi cells; GAL4-4 sgRNA, 0.137174 nM): 97.8709 | cell growth (K562-dCas9-KRAB) (K562 CRISPRi cells; GAL4-4 sgRNA, 1.23457 nM): 71.632 and 70.4313 and 67.4428 | cell growth (K562-dCas9-KRAB) (K562 CRISPRi cells; GAL4-4 sgRNA, 3.7037 nM): 17.746 and 15.8338 and 15.2774 | cell growth (K562-dCas9-KRAB) (K562 CRISPRi cells; GAL4-4 sgRNA, 11.1111 nM): 13.9448 and 13.723 and 15.0323 | cell growth (K562-dCas9-KRAB) (K562 CRISPRi cells; GAL4-4 sgRNA, 33.3333 nM): 13.6321 and 13.22 and 14.5715 | cellular activity after CRISPRi knockdown of FKBP12 (K562 CRISPRi cells; K562 dCas9-KRAB, two sgRNAs): drastically impeded its cellular activity | cell growth (K562-dCas9-KRAB) (K562 CRISPRi cells; No sgRNA + 10 μM FK506, 0.0152416 nM): 90.7304 and 95.49 and 92.3837 | cell growth (K562-dCas9-KRAB) (K562 CRISPRi cells; No sgRNA + 10 μM FK506, 0.0457247 nM): 91.7724 and 93.2742 and 91.026 | cell growth (K562-dCas9-KRAB) (K562 CRISPRi cells; No sgRNA + 10 μM FK506, 0.137174 nM): 91.4157 and 89.1222 and 88.9009 | cell growth (K562-dCas9-KRAB) (K562 CRISPRi cells; No sgRNA + 10 μM FK506, 1.23457 nM): 91.763 and 90.0617 and 88.7417 | cell growth (K562-dCas9-KRAB) (K562 CRISPRi cells; No sgRNA + 10 μM FK506, 3.7037 nM): 89.7918 and 91.174 and 89.4532 | cell growth (K562-dCas9-KRAB) (K562 CRISPRi cells; No sgRNA + 10 μM FK506, 11.1111 nM): 86.3008 and 85.9782 and 86.561 | cell growth (K562-dCas9-KRAB) (K562 CRISPRi cells; No sgRNA + 10 μM FK506, 33.3333 nM): 70.168 and 69.6522 and 67.2473 | cell growth (K562-dCas9-KRAB) (K562 CRISPRi cells; No sgRNA, 0.0152416 nM): 98.221 and 102.996 and 99.7082 | cell growth (K562-dCas9-KRAB) (K562 CRISPRi cells; No sgRNA, 0.0457247 nM): 104.804 and 96.4373 and 102.095 | cell growth (K562-dCas9-KRAB) (K562 CRISPRi cells; No sgRNA, 0.137174 nM): 98.0154 and 97.5628 and 102.366 | cell growth (K562-dCas9-KRAB) (K562 CRISPRi cells; No sgRNA, 1.23457 nM): 69.0104 and 68.6714 and 68.1063 | cell growth (K562-dCas9-KRAB) (K562 CRISPRi cells; No sgRNA, 3.7037 nM): 15.0031 and 16.0719 and 14.3485 | cell growth (K562-dCas9-KRAB) (K562 CRISPRi cells; No sgRNA, 11.1111 nM): 13.4023 and 12.2624 and 12.6642 | cell growth (K562-dCas9-KRAB) (K562 CRISPRi cells; No sgRNA, 33.3333 nM): 12.1483 and 12.1908 and 11.8583
